Measurements as given in US20210206817A1, “Metabolically Stable Apelin Analogs in the Treatment of Disease Mediated by the Apelin Receptor” (priority 2014, published 2021).

Experiments:
rat apelin receptor-EGFP [1] = biological target: T1, rat apelin receptor-EGFP (Rattus norvegicus, UniProt Q9JHG3); test: Apelin receptor-EGFP internalization, confocal microscopy; assay type: cell-based
T1 construct: expressed in transfected cells
T1 sequence (Q9JHG3 1-377): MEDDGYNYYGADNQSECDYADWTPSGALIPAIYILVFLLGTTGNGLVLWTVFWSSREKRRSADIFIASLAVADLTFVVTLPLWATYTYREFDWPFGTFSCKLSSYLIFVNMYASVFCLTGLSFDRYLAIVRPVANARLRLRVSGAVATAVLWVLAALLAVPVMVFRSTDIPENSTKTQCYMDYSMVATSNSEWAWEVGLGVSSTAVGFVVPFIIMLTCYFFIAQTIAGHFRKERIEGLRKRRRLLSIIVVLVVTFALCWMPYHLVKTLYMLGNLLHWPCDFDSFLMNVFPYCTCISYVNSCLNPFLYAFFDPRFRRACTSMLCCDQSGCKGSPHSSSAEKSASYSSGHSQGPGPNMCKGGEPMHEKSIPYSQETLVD
Procedure: The internalization assay was performed as described previously with CHO cells stably expressing the rat apelin receptor-EGFP (43). […] Cells were then mounted in Aquapolymount (Polysciences, Warrington, Pa., USA) for confocal microscopic analysis (Sec (42) for details).

[2] = test system: rat glomerular arterioles precontracted by Angiotensin II (AngII); test: Diameter of glomerular arterioles precontracted by angiotensin II
Procedure: The left kidney of male rats was prepared for microdissection of arterioles as previously described (44). Glomerular arterioles were isolated under stereomicroscopic observation. The afferent and muscular efferent arterioles were isolated with the glomerulus and identify according their morphology and localization in the inner renal cortex as previously described by Helou et al. […] For these experiments afferent and muscular efferent arterioles were microdissected attached to the gomeruli. […] Arteriolar diameters were measured with Adobe Photoshop CS. Diameters were measured on a distance equal to about 100 μm upstream of the glomerulus and triplicate were performed for each arteriole. Calibration was made using a stage micrometer. The average diameter for each experimental condition was used for statistical analysis.

[3] = test system: rat aortic rings precontracted by noradrenaline (NA); test: Isometric tension of aortic rings precontracted by noradrenaline; details: 100 μM
Procedure: The experiments were performed in rat aortic rings as previously described (39). […] The aortas were cleaned of excess connective tissue and fat and cut into rings of approximately 3-4 mm in length. Special care was taken to avoid damaging the luminal surface of the endothelium. […] One end of the aortic ring was connected to a tissue holder and the other to an isometric force transducer (EMKA Technologies, Paris, France). […] During equilibration period, the rings were washed every 30 min. Then, a first relaxation to acetylcholine (Ach, 10^−4 mol/L) was implemented to check the integrity or the absence of the endothelium in rings precontracted with NA (3×10^−8 mol/L). After rinsing with PSS to baseline tension, rings were equilibrated for 90 min. […] Each concentration of the drug was added at the maximal effect of the precedent concentration. The concentration-response curves were continuously recorded on a PC by means of IOX v 2.4 (EMKA Technologies, Paris) for further analysis (Datanalyst v2.1, EMKA Technologies, Paris).

[4] = test system: water-deprived or euhydrated mice; test: Plasma AVP after i.c.v. injection (RIA); assay type: in vivo, mouse
Procedure: Animals were killed 1 min after the injection, and trunk blood (0.5-1 ml) was collected in chilled tubes containing 50 μl of 0.3 M EDTA pH 7.4. […] RIA kit (Peninsula Laboratories International Inc, San Carlo, USA).

rat apelin receptor-EGFP [5] = biological target: T1, rat apelin receptor-EGFP; test: [125I]pE13F radioligand binding on CHO membrane preparations
Procedure: Crude membrane preparation from CHO stably expressing the wild-type rat apelin receptor-EGFP, were prepared as previously described (39). […] The reaction was stopped by adding ice-cold binding buffer and filtered through glass microfiber filters (Whatman GF/C filters). Radioactivity was counted in Wizard 1470 Wallac gamma counter (Perkin Elmer, Turku, Finland).

[6] = test system: anaesthesized normotensive Wistar rats; test: Arterial blood pressure after i.v. injection; assay type: in vivo, rat
Procedure: The resulting solution was administered to the rats via a catheter inserted into the right femoral vein, and was immediately followed by 0.2 ml Krebs buffer alone to flush the venous catheter. An additional catheter was inserted into the right femoral artery, as previously described (47), for the monitoring of mean arterial blood pressure (MBP) as previously described (48). The arterial catheter was connected to a COBE CDX III pressure transducer (Phymep, Paris, France) linked to the Maclab system (Phymep, Paris, France). HR measurement was triggered by the blood pressure signal. BP was continuously recorded throughout the experiment. […] Mean AUC for each group were then calculated. Unpaired Student's t test was used to determine whether BP observed in response to substances administered […].) has statistically significant difference.

rat apelin receptor-EGFP [7] = biological target: T1, rat apelin receptor-EGFP; test: Inhibition of forskolin-induced cAMP production (HTRF); assay type: cell-based
Procedure: cAMP was quantified using the cAMP dynamic 2 assay kit (Cisbio Bioassays, Codolet, France) based on homogeneous time-resolved fluorescence (HTRF) technology. The stimulation was done in the stimulation buffer (HBSS, 5 mM Hepes, 0.1% BSA stabilizer, 1 mM IBMX, pH 7.4). Briefly, 2,000/well CHO cells stably expressing the rat apelin receptor-EGFP were added into 384-well plate and stimulated with 10^−6 M forskolin (FSK) and increasing concentrations (10^−14 to 10^−4 M) of apelins or its analogs for 30 min at room temperature. Cells were then lyzed, and cAMP levels were determined following manufacturer instructions.

[8] = Stability in mouse plasma at 37° C.
Procedure: For each compound, the stock solution (100 μM in water) was diluted in plasma to a final incubation concentration of 5 μM. The incubation at 37° C. was stopped respectively at to and 4 h by adding one volume of ice cold acetonitrile containing 0.1% trifluoroacetic acid. The sample was vortexed for 1 min and then centrifuged at 4° C. before LC-MS injection of the supernatant. Analyses were performed on a Kinetex RP-C18 column (2.6 μm, 100 Å, 50×4.6 mm) using a linear gradient (solvent B in solvent A, solvent A: water/0.05% TFA; solvent B: acetonitrile; flow rate of 2 mL·min^−1: detection at 358 nm). The percentage of remaining test compound relative to t0 was measured by monitoring the peak area of the chromatogram.

rat apelin receptor-EGFP [9] = biological target: T1, rat apelin receptor-EGFP; test: ERK1/2 phosphorylation (Alphascreen); assay type: cell-based
From the text: ERK1/2 phosphorylation was then monitored by Alphascreen technology.

[10] = 15 nmol i.v., listed as JFM V-01961

SMILES: CSCC[C@H](NC(=O)[C@@H]1CCCN1C(=O)CNC(=O)[C@H](CCCCN)NC(=O)[C@H](Cc1c[nH]cn1)NC(=O)[C@H](CO)NC(=O)[C@H](CC(C)C)NC(=O)[C@H](CCCNC(=N)N)NC(=O)[C@@H]1CCCN1C(=O)[C@H](CCCNC(=N)N)NC(=O)[C@H](CCC(N)=O)NC(=O)[C@H](CCCNC(=N)N)NC(=O)[C@H](CCCNC(=N)N)NC(=O)[C@H](Cc1ccccc1)NC(=O)[C@H](CCCCN)NC(=O)CCC(F)(F)C(F)(F)C(F)(F)C(F)(F)C(F)(F)C(F)(F)C(F)(F)C(F)(F)F)C(=O)N1CCC[C@H]1C(=O)N[C@@H](Cc1ccccc1)C(=O)O [JFM V-0196B]
- EC50 (rat apelin receptor-EGFP [1]): 0.41 ± 0.16 nM
- arteriolar diameter after application to Ang II-precontracted arterioles ([2]; 500 nM, 1 nM Ang II, from 12.97±0.50 μm): 13.88±0.45 μm
- vasorelaxant effect in the presence of L-NAME ([2]; L-NAME, NO synthase inhibitor): not significantly changed
- vasorelaxing effect at maximal concentration [3]: 60±3%
- effect on plasma AVP levels in euhydrated mice ([4]; euhydrated mice, supramaximal dose 1 μg i.c.v.): no effect on plasma AVP levels
- maximal decrease in AVP release ([4]; water-deprived mice, 0.01 μg i.c.v.): −75%
- Ki (rat apelin receptor-EGFP [5]; Binding affinity Ki (nM), Table 7, additional experiments vs Table 2): 0.08 ± 0.01 nM
- Ki (rat apelin receptor-EGFP [5]; Ki for the apelin receptor (affinity), competition with [125I]pE13F, CHO membranes): 0.2 nM
- Ki (rat apelin receptor-EGFP [5]; [125I]pE13F binding I (nM), Table 2): 0.21 ± 0.27 nM
- duration of the hypotensive effect, fold higher than K17F ([6]; 15 nmol i.v.): 27 fold
- maximal hypotensive response, fold higher than K17F ([6]; 15 nmol i.v.): 9 fold
- BP decrease at the plateau value after 30 min ([6]; 15 nmol i.v., after 30 min): 21 mmHg
- duration of the hypotensive effect, fold higher than K17F [6, 10]: 8 fold
- maximal hypotensive response, fold higher than K17F [6, 10]: 6.7 fold
- time of maximal hypotensive response after injection ([6]; 15 nmol/rat i.v.): 10 min
- Maximal decrease in BP (mmHg) ([6]; Table 5, 15 nmol i.v.): −52 mmHg
- Time For maximal BP decrease ([6]; Table 5, 15 nmol i.v.): 10 min
- Time to return to a plateau value ([6]; Table 5, 15 nmol i.v.): 33 min
- plateau value reached (in brackets) ([6]; Table 5, 15 nmol i.v.): −21 mmHg
- IC50 (rat apelin receptor-EGFP [7]): 3.13 ± 1.43 nM
- starting peptide remaining after 4 h ([8]; Table 4, mouse plasma, 37° C., 4 h): 100% of starting peptide after 4 h
- half-life at 5 μM ([8]; mouse, plasma): > 240 min
- EC50 (rat apelin receptor-EGFP [9]): 0.89 ± 0.61 nM
